{"source": "patent US10426818B2", "about": "“Method and pharmaceutical composition for use in the treatment of diabetes” (INSERM (INSITUT NATIONAL DE LA SANTE ET DE LA RECHERCHE …, priority 2015, dated 2019)", "test_system": "overweighed healthy volunteers", "settings": "for ΔGIR (difference in Glucose Infusion Rate): single 2 hours continuous intravenous infusion, 8 volunteers", "method": "This trial is a Phase 1, exploratory, monocentric, placebo-controlled, double blinded, crossover study.\nTwo groups of 8 male, overweighed (BMI 25-30 kg/m^2) healthy volunteers were included in this study.\nThe first 8 volunteers were included in the low dose group.\nThe next 8 volunteers were included in the high dose group.\nEuglycemic Hyperinsulinemic Clamp Technique • Insulin (Actrapid®, NovoNordisk, Copenhagen, Denmark) was perfused for 4 hours at a constant supra-physiological rate (1 mU·Kg-1·min-1) resulting in the complete inhibition of hepatic glucose production. • Blood glucose level was measured every 5 min and maintained for 4 hours at a constant physiological value (5 mmol/l) adapting the rate of infusion of a 20% glucose solution.\nThe primary endpoint (deltaGIR) was the difference between the GIR measured during the steady state ending the “investigational product” perfusion phase (GIRperfusion) and the GIR measured during the steady state ending the “basal” phase (GIRbasal). Delta GIR=GIRperfusion−GIRbasal", "note": "Read-outs that look alike come from different tables or passages of the source.", "data": [{"substance": "(pyr1)-Apelin-13", "values": [{"measurement": "change in ΔGIR versus placebo (in words)", "setting": "9 nmol/kg intravenous, p=0.06", "result": "non-significant increase"}, {"measurement": "ΔGIR (difference in Glucose Infusion Rate)", "setting": "9 nmol/kg, p=0.06 versus placebo", "result": "+2.21±0.54 mg/kg/min"}, {"measurement": "insulin sensitivity versus placebo (in words)", "setting": "30 nmol/kg intravenous, p=0.03", "result": "significant improvement"}, {"measurement": "ΔGIR (difference in Glucose Infusion Rate)", "setting": "30 nmol/kg, p=0.03 versus placebo", "result": "+1.72±0.47 mg/kg/min"}]}]}
